Molecular target: human factor IXa (Homo sapiens (Human), UniProt P00740)
Assay: biochemical
Conditions: read-out: Imax IXa (percentage inhibition at the maximum concentration tested)

Chain of human factor IXa (P00740 whole entry, looked up): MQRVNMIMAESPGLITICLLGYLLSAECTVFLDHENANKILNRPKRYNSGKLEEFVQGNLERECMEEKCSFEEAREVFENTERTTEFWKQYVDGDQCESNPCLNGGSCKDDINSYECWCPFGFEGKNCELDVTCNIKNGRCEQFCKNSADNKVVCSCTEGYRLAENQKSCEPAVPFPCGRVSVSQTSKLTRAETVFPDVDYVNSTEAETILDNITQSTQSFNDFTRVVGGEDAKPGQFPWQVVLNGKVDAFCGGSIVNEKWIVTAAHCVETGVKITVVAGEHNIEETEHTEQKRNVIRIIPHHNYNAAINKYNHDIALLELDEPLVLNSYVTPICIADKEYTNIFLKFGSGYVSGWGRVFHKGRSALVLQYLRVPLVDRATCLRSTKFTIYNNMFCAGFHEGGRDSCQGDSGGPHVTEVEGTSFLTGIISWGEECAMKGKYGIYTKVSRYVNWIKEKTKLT
Chain of human factor IXa (P00740 whole entry partner, looked up): as the sequence (P00740 whole entry, looked up) above

Question: For `COC(=O)[C@@H](Cc1cc2ccnc(N)c2cc1C(F)(F)F)N1CC[C@H](NS(=O)(=O)c2cnc(N3CCC(F)(F)C3)s2)C1=O` [Compound 90, (R)-3-(1-Amino-7-trifluoromethyl-isoquinolin-6-yl)-2-{(S)-3-[2-(3,3-difluoro-pyrrolidin-1-yl)-thiazole-5-sulfonylamino]-2-oxo-pyrrolidin-1-yl}-propionic acid methyl ester], which inhibition at 5 µM is on record?
Answer: The inhibition at 5 µM was 41%.

Reference: patent US9150544B2 (priority 2011, dated 2015)
